≈ marks a conversion by molar mass, not a printed value.
Experiments:
[1] = tested on: PC-3; experiment: Antiproliferative activity against human PC3 cells assessed as reduction in cell viability incubated for 5 days by Cell-titer Glo reagent based assay; assay type: functional
[2] = tested on: Liver; experiment: Unbound intrinsic clearance in human liver microsomes at 0.5 uM in presence of NADPH incubated for 5 to 30 mins by HPLC-MS/MS method; assay type: ADME, microsome
[3] = biological target: Nicotinamide phosphoribosyltransferase (Homo sapiens, UniProt P43490)
Chain of Nicotinamide phosphoribosyltransferase (P43490 whole entry): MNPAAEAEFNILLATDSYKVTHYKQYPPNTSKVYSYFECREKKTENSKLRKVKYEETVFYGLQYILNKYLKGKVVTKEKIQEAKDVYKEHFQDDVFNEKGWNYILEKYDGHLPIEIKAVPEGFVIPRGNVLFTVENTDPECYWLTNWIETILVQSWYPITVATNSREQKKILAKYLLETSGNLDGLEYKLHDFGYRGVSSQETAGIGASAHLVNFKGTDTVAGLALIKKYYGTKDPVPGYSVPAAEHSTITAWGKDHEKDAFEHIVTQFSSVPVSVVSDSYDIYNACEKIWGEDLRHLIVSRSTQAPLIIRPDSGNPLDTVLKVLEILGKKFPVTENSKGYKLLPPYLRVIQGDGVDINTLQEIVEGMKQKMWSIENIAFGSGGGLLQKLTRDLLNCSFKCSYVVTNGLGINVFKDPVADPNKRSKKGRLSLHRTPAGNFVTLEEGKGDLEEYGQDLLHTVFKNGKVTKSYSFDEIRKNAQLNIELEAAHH
Description: Inhibition of C-terminal His-tagged human recombinant NAMPT using FK866 or isoindoline urea-based Oregon green (488) probe incubated for 3 hrs by TR-FRET assay

[4] = tested on: Liver; experiment: Unbound intrinsic clearance in mouse liver microsomes at 0.5 uM in presence of NADPH incubated for 5 to 30 mins by HPLC-MS/MS method; assay type: ADME, microsome
[5] = Aqueous solubility of the compound; assay type: physicochemical; conditions: buffer
[6] = biological target: Cytochrome P450 3A4 (Homo sapiens, UniProt P08684); experiment: Inhibition of CYP3A4 (unknown origin); assay type: ADME
Chain of Cytochrome P450 3A4 (P08684 whole entry): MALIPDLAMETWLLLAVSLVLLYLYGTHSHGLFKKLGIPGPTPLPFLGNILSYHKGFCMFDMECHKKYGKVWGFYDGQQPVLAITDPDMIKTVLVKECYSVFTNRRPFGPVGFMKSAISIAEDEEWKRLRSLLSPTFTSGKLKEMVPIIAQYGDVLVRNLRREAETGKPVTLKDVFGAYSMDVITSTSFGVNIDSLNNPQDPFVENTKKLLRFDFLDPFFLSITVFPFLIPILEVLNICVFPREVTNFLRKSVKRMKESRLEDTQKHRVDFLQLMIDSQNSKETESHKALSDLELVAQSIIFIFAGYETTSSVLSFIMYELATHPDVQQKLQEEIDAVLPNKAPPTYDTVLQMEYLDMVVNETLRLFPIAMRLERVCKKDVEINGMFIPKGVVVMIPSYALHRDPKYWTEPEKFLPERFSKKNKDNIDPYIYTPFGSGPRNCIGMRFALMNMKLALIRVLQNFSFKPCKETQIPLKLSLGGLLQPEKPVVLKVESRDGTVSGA

[7] = biological target: Cytochrome P450 2C9 (Homo sapiens, UniProt P11712); experiment: Inhibition of CYP2C9 (unknown origin); assay type: ADME
Chain of Cytochrome P450 2C9 (P11712 whole entry): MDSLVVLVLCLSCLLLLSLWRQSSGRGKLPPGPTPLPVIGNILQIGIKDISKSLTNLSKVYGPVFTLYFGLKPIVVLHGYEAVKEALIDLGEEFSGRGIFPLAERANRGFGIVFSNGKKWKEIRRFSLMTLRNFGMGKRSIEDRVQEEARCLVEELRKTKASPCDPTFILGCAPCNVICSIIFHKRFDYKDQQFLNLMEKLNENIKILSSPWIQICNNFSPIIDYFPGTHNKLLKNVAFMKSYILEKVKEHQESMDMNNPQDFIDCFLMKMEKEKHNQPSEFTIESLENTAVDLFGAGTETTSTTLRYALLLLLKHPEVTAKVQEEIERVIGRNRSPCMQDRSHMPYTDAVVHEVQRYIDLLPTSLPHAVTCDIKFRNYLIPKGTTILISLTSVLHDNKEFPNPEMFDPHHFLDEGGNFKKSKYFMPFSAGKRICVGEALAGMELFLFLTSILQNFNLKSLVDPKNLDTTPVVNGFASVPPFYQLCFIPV

[8] = tested on: Liver; experiment: Unbound intrinsic clearance in rat liver microsomes at 0.5 uM in presence of NADPH incubated for 5 to 30 mins by HPLC-MS/MS method; assay type: ADME, microsome
[9] = Half life in Sprague-Dawley rat at 1 mg/kg, iv; assay type: ADME, organism-based; conditions: in vivo
[10] = Plasma clearance in Sprague-Dawley rat at 1 mg/kg, iv; assay type: ADME, organism-based
[11] = tested on: Rattus norvegicus; experiment: Unbound intrinsic clearance in Sprague-Dawley rat at 1 mg/kg, iv; assay type: ADME, organism-based; conditions: in vivo
[12] = Oral bioavailability in Sprague-Dawley rat at 1 mg/kg; assay type: ADME, organism-based; conditions: in vivo
[13] = tested on: HCT-116; experiment: Antitumor activity against human HCT116 cells xenografted in CB17 SCID mouse assessed as tumor growth inhibition at 15 mg/kg/day, po dosed daily (3 days on/4 days off per cycle for 3 cycles); assay type: functional; conditions: HCT-116, po, 72 h, read-out: TGI

SMILES	IC50 ([1]; Homo sapiens, PC-3, 120 h) [nM]	CL free [2] [mL/min/kg]	Ki [3] [nM]	CL free [4] [mL/min/kg]	solubility [5] [µM]	further results
O=C(Nc1ccc(C2=CCN(C(=O)c3ccccc3)CC2)cc1)N1Cc2ccccc2C1	8.1	217				
O=C(Nc1ccc(C2CN(C(=O)c3ccccc3)C2)cc1)N1Cc2ccc(F)cc2C1	3.9	45	1.9	433		
CCC(C)C(=O)N1CCC(Oc2ccc(NC(=O)N3Cc4ccccc4C3)cc2)CC1 (stereo unspecified)	48	633		2780		
CC(C)CCNC(=O)c1cccc(NC(=O)N2Cc3ccccc3C2)c1	> 12500		> 8900			
CC(C)C[C@@H](CO)NC(=O)c1ccc(NC(=O)N2Cc3ccccc3C2)cc1	66	56.7		115	< 5	
O=C(Nc1ccc(C2CCN(C(=O)c3ccccc3)CC2)cc1)N1Cc2ccccc2C1	2.8	183		983		
CC(C)CCC(=O)Nc1ccc(NC(=O)N2Cc3ccccc3C2)cc1	17	60	58	783	< 5	
CC(C)CCNC(=O)c1ccc(NC(=O)N2Cc3ccncc3C2)cc1						IC50 ([1]; pc-3): 8.4 nM
CN1CCN(C(C)(C)C(=O)N2CCC(c3ccc(NC(=O)N4Cc5ccccc5C4)cc3)CC2)CC1	2.3	733	1.5	1470		
COC(=O)c1ccc(NC(=O)N2Cc3ccccc3C2)cc1			112		< 5	IC50 ([1]; pc-3): 2300 nM
Cc1ccc(NC(=O)N2Cc3ccccc3C2)cc1			2200		< 5	IC50 ([1]; pc-3): > 10000 nM
CC1(C(=O)N2CCC(c3ccc(NC(=O)N4Cc5ccccc5C4)cc3)CC2)CC1	6.6	56.7	4.3	283		
O=C(Nc1ccc(C2CCN(S(=O)(=O)C3CC3)CC2)cc1)N1Cc2ccc(F)cc2C1	6.5	58.3	3.9	500		
CC(C)CCNC(=O)c1ccc(NC(=O)N2Cc3ccc(C#N)cc3C2)cc1	> 10000					
CC(C)CCn1cc(-c2ccc(NC(=O)N3Cc4ccccc4C3)cc2)cn1	32				< 5	
CC(C)CCNC(=O)c1ccc(NC(=O)N2Cc3cccc(Cl)c3C2)cc1						IC50 ([1]; pc-3): 640 nM
COc1cc2c(cc1OC)CN(C(=O)Nc1ccc(C(=O)NCCC(C)C)cc1)C2	> 10000		> 9000			
CC(C)CCNS(=O)(=O)c1ccc(NC(=O)N2Cc3ccccc3C2)cc1	> 10000	433		4420	< 5	
CC(C)(O)CC(=O)N1CCC(c2ccc(NC(=O)N3Cc4ccccc4C3)cc2)CC1	24	58.3	5.6	300	3.3 (≈ 1.39 µg/mL)	IC50 [6]: 16000 nM; IC50 [7]: 8400 nM; CL free [8]: < 56.7 mL/min/kg; half-life [9]: 4.8 h; clearance [10]: 1.83 mL/min/kg; CL free [11]: 28.3 mL/min/kg; bioavailability [12]: 100%; inhibition in vivo at 15 mg/kg/day [13]: 90%
Cc1ccc2c(c1)CN(C(=O)Nc1ccc(C(=O)NCCC(C)C)cc1)C2	10					
O=C(Nc1ccc(N2CCN(C(=O)c3ccccc3)CC2)cc1)N1Cc2ccccc2C1	84	130				
CN(CCC(C)(C)C)C(=O)c1ccc(NC(=O)N2Cc3ccccc3C2)cc1	1100	2000	160	2170	< 5	
CC(C)CCNC(=O)c1ccc(NC(=O)N2Cc3ccccc3C2)cc1		250		817	< 5	IC50 ([1]; pc-3): 38 nM
O=C(Nc1ccc(C(=O)N2CCN(c3ccccn3)CC2)cc1)N1Cc2ccccc2C1	19	63.3		183	< 5	

Source: ChEMBL document CHEMBL4033748, “SAR and characterization of non-substrate isoindoline urea inhibitors of nicotinamide phosphoribosyltransferase (NAMPT)” (Bioorg Med Chem Lett, 2017)
